These are literature values, as cited in patent publication US20040067918A1, “Combination of an aldosterone receptor antagonist and nicotinic acid or a nicotinic acid derivative” (priority 2002, published 2004).

The conditions of this series: severe heart failure patients on standard therapy, relative to placebo-treated subjects.

As to `CC(=O)SC1CC2=CC(=O)CCC2(C)C2CCC3(C)C(CCC34CCC(=O)O4)C12` (stereo not drawn) [spironolactone, 17-hydroxy-7α-mercapto-3-oxo-17α-pregn-4-ene-21-carboxylic acid γ-lactone acetate], the incidence of hospitalization result is listed as “statistically significant reduction” and the mortality entry is recorded as “statistically significant reduction”.
